ChEMBL document CHEMBL2073847, “Inhibition of the CYP3A4-mediated metabolism and P-glycoprotein-mediated transport of the HIV-1 protease inhibitor saquinavir by grapefruit juice components” (Br J Clin Pharmacol, 1999)

Key:
[1] = biological target: T1, ATP-dependent translocase ABCB1 (Homo sapiens, UniProt P08183); experiment: TP_TRANSPORTER: inhibition of Saquinavir transepithelial transport (basal to apical) in Caco-2 cells; assay type: functional, cell-based
[2] = biological target: T1, ATP-dependent translocase ABCB1; experiment: TP_TRANSPORTER: transepithelial transport (basal to apical) in Caco-2 cells; assay type: functional, cell-based

T1 sequence (P08183 whole entry): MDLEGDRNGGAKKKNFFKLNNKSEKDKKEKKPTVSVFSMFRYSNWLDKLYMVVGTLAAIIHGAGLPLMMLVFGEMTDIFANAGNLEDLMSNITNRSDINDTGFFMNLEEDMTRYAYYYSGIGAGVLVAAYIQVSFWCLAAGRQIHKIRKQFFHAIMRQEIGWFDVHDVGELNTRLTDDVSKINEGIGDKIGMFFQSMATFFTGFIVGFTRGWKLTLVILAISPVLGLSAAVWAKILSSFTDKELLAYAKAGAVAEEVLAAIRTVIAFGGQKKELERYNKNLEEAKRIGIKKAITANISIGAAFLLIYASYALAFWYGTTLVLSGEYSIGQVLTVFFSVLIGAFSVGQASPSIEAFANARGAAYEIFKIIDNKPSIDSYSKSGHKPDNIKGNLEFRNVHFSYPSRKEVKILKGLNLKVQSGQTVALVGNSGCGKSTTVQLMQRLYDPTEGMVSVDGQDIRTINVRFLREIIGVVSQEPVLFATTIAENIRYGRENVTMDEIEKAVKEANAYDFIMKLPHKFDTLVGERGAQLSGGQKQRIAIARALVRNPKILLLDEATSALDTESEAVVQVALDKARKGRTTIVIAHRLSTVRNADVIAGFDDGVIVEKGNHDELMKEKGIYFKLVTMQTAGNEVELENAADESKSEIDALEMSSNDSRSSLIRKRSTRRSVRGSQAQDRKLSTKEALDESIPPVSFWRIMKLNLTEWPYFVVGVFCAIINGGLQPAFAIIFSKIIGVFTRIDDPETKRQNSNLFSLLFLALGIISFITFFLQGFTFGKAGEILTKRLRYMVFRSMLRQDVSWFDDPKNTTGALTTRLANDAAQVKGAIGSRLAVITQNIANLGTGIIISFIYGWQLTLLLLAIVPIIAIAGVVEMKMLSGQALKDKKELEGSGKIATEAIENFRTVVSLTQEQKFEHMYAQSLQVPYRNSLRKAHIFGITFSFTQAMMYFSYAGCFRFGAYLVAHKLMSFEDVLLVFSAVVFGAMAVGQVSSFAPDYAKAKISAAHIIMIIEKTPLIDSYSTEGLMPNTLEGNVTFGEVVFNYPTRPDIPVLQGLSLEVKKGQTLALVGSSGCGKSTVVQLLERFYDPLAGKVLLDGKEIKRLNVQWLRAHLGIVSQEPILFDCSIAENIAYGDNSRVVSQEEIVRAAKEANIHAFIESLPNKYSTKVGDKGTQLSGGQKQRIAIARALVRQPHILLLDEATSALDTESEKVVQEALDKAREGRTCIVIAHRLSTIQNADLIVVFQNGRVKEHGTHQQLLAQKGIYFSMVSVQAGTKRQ

| SMILES | Activity [1] | Activity [2] |
| --- | --- | --- |
| C/C(=C\COc1c2ccoc2cc2oc(=O)ccc12)CC[C@@H](O)C(C)(C)O | is not an inhibitor [-] |  |
| CC(C)=CCC/C(C)=C/COc1c2ccoc2cc2oc(=O)ccc12 [BERGAMOTTIN] | is not an inhibitor [-] |  |
| O=C1C[C@@H](c2ccc(O)cc2)Oc2cc(O)cc(O)c21 [NARINGENIN] | inhibitor [+] |  |
| C[C@@H]1O[C@@H](O[C@H]2[C@H](Oc3cc(O)c4c(c3)O[C@H](c3ccc(O)cc3)CC4=O)O[C@H](CO)[C@@H](O)[C@@H]2O)[C@H](O)[C@H](O)[C@H]1O [NARINGIN] | inhibitor [+] |  |
| CC(C)(C)NC(=O)[C@@H]1C[C@@H]2CCCC[C@@H]2CN1C[C@@H](O)[C@H](Cc1ccccc1)NC(=O)[C@H](CC(N)=O)NC(=O)c1ccc2ccccc2n1 [SAQUINAVIR] |  | substrate [+] |
